Measured values: US11926620B1, “1-Cyclopropyl-6-fluoro-4-oxo-7-(4-((2-thioxobenzo[d]oxazol-3(2H)-yl)methyl)piperazin-1-yl)-1,4-dihydroquinoline-3-carboxylic acid as an antimicrobial and anticancer compound” (KING FAISAL UNIVERSITY, priority 2023, dated 2024)

Legend:
[1] = test system: Chrysosporium keratinophilum; assay: Agar plate disc-diffusion, Chrysosporium keratinophilum; format: cell-based; settings: disc 10 μL of 10 mg/mL in DMSO, 72 h, result in words
Method: (§1) The antimicrobial properties of the synthesized compounds were studied by the method of agar plate disc-diffusion. Sterilized filter papers (6 mm in diameter) were wetted with 10 μL of a solution of each compound to be tested, containing 10 mg/mL in DMSO, and the discs were allowed to air dry. The discs were then placed onto the surface of agar plates (nutrient agar for bacteria and Sabouraud's dextrose agar for fungi) seeded with the test organism. Each plate contained 15 mL of the agar medium, previously seeded with 0.2 mL of the broth culture of each organism pregrown for 18 h. The plates were incubated at 37° C. for 48 h, and 72 h for fungi. The inhibition zones were measured in mm. Discs impregnated with DMSO were used as a control, and its inhibition zone was subtracted from the tested compound actual inhibition zone.

Staphylococcus aureus = assay: Agar plate disc-diffusion, Staphylococcus aureus; format: cell-based; settings: gram positive Staphylococcus aureus; disc 10 μL of 10 mg/mL in DMSO, 37° C., 48 h; result in words
Method: as §1

Pseudomonas aeruginosa = assay: Agar plate disc-diffusion, Pseudomonas aeruginosa; format: cell-based; settings: gram-negative Pseudomonas aeruginosa; disc 10 μL of 10 mg/mL in DMSO, 37° C., 48 h; result in words
Method: as §1

Escherichia coli = assay: Agar plate disc-diffusion, Escherichia coli; format: cell-based; settings: gram-negative Escherichia coli; disc 10 μL of 10 mg/mL in DMSO, 37° C., 48 h; result in words
Method: as §1

[2] = test system: human osteosarcoma cells (MG-63); assay: Cytotoxicity by SRB assay, MG-63; format: cell-based; settings: MG-63 cells, 0.01 μM to 100 μM for 72 h, result in words
Method: (§2) The human prostate cancer cells (PC3) and human osteosarcoma cells (MG-63) were obtained from Nawah Scientific Inc. (Mokatam, Cairo, Egypt) and cultured in DMEM (Dulbecco's modified eagle's medium), Gibco, USA, supplemented with fetal bovine serum (FBS) at a concentration of 10% and 100 U/mL of penicillin and streptomycin (PS). The Cells were incubated at 37° C. in a humidified environment that contained 5% CO2. Cells were seeded in 96-well plates as aliquots of 100 μL cell suspension and incubated in a complete media for 24 h. afterward, cells were treated with 1-Cyclopropyl-6-fluoro-4-oxo-7-(4-((2-thioxobenzo[d]oxazol-3(2H)-yl)methyl)piperazin-1-yl)-1,4-dihydroquinoline-3-carboxylic acid at diverse concentrations ranging from 0.01 μM to 100 μM for 72 h. Then, cells were fixed at 4° C. for one hour with 150 μL of 10% trichloroacetic acid (TCA). […] Then, 150 μL of Tris pH 10.5 (10 mM) was added, and the absorbance was measured at 540 nm using a BMG LABTECH®-FLUOstar Omega microplate reader (Ortenberg, Germany). Half maximal inhibitory concentrations (IC50) values were calculated for each experiment using GraphPad Prism 6 software. […] The inhibition was calculated using the following equation: Inhibition %=100−Average Viability

Aspergillus flavus = assay: Agar plate disc-diffusion, Aspergillus flavus; format: cell-based; settings: disc 10 μL of 10 mg/mL in DMSO, 72 h, result in words
Method: as §1

Bacillus cereus = assay: Agar plate disc-diffusion, Bacillus cereus; format: cell-based; settings: gram positive Bacillus cereus; disc 10 μL of 10 mg/mL in DMSO, 37° C., 48 h; result in words
Method: as §1

[3] = test system: human prostate cancer cells (PC3); assay: Cytotoxicity by SRB assay, PC3; format: cell-based; settings: 0.01 μM to 100 μM for 72 h, result in words
Method: as §2

In the case of `O=C(O)c1cn(C2CC2)c2cc(N3CCN(Cn4c(=S)oc5ccccc54)CC3)c(F)cc2c1=O` [1-cyclopropyl-6-fluoro-4-oxo-7-(4-((2-thioxobenzo[d]oxazol-3(2H)-yl)methyl)piperazin-1-yl)-1,4-dihydroquinoline-3-carboxylic acid], the melting point is reported as 187 to 189 °C, the antifungal activity [1] is reported as “excellent antimicrobials activities” and the antibacterial activity (Staphylococcus aureus) is reported as “excellent antimicrobials activities”. For the same molecule, the antibacterial activity (Pseudomonas aeruginosa) was “excellent antimicrobials activities”, the antibacterial activity (Escherichia coli) was “excellent antimicrobials activities” and the antiproliferative activity [2] was “excellent antiproliferative activities”. For the same molecule, the antifungal activity (Aspergillus flavus) was “excellent antimicrobials activities”, the antibacterial activity (Bacillus cereus) was “excellent antimicrobials activities” and the antiproliferative activity [3] was “excellent antiproliferative activities”.
